Where two headings read alike, the source gives them in different places.
Tests used:
Type in all cases: cell-based
[1] = target: T1, human muscarinic M2 receptor (Homo sapiens, UniProt P08172); experiment: Alphascreen Surefire phospho-ERK1/2 functional assay, M2; conditions: for EC50: CHO cells stably expressing human M2, phospho-ERK1/2, read-out: pEC50 M2 (converted); for Emax: CHO, read-out: M2 % Emax cf. ACh
T1 sequence (P08172 1-466): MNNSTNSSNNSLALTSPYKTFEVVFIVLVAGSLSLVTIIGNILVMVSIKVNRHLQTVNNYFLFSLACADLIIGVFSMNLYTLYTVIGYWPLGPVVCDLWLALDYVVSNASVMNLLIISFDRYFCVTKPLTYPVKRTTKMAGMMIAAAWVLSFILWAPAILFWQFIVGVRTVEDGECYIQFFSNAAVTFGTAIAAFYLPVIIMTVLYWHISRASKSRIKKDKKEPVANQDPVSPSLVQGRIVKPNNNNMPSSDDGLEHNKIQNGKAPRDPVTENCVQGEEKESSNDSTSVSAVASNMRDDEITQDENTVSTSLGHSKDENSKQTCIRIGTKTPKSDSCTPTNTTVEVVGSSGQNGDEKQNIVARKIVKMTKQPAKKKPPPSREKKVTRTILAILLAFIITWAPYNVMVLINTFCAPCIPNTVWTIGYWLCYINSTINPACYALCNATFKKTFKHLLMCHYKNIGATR
Description: (§1) Functional assays were performed using the Alphascreen Surefire phospho-ERK1/2 assay (Crouch & Osmond, Comb. Chem. High Throughput Screen, 2008). ERK1/2 phosphorylation is a downstream consequence of both Gq/11 and Gi/o protein coupled receptor activation, making it highly suitable for the assessment of M1, M3 (Gq/11 coupled) and M2, M4 receptors (Gi/o coupled), rather than using different assay formats for different receptor subtypes. CHO cells stably expressing the human muscarinic M1, M2, M3 or M4 receptor were plated (25K/well) onto 96-well tissue culture plates in MEM-alpha+10% dialysed FBS. Once adhered, cells were serum-starved overnight. Agonist stimulation was performed by the addition of 5 μL agonist to the cells for 5 min (37° C.). Media was removed and 50 μL of lysis buffer added. After 15 min, a 4 μL sample was transferred to 384-well plate and 7 μL of detection mixture added. Plates were incubated for 2 h with gentle agitation in the dark and then read on a PHERAstar plate reader.
(§2) pEC50 and Emax figures were calculated from the resulting data for each receptor subtype.

[2] = target: T2, human muscarinic M3 receptor (Homo sapiens, UniProt P20309); experiment: Alphascreen Surefire phospho-ERK1/2 functional assay, M3; conditions: for EC50: CHO cells stably expressing human M3, phospho-ERK1/2, read-out: pEC50 M3 (converted); for Emax: CHO, read-out: M3 % Emax cf. ACh
T2 construct: expressed in transfected cells
Description: as §1, §2

[3] = target: T3, human muscarinic M4 receptor (Homo sapiens, UniProt P08173); experiment: Alphascreen Surefire phospho-ERK1/2 functional assay, M4; conditions: for EC50: phospho-ERK1/2, read-out: pEC50 M4 (converted); for Emax: CHO
T3 construct: expressed in transfected cells
T3 sequence (P08173 1-479): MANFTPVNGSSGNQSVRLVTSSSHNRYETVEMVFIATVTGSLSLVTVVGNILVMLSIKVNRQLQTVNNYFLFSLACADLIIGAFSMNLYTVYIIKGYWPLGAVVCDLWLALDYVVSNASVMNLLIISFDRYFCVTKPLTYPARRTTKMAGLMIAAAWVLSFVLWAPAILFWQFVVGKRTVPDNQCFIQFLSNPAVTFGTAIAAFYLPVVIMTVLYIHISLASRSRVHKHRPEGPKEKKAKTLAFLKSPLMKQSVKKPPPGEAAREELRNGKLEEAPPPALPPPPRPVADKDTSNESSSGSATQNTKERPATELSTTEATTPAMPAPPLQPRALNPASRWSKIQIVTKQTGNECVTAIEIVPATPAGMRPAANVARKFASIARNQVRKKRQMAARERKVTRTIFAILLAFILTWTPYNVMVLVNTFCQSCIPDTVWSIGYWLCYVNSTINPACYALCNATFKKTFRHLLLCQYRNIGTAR
In short: (§3)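 Steps: plate CHO cells stably expressing the receptor in MEM-alpha with 10% dialysed FBS; starve overnight; add agonist for 5 min at 37 °C; lyse for 15 min; incubate the lysate with SureFire detection reagents for 2 h; read. The outputs are pEC50 and Emax.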

[4] = target: T4, human muscarinic M1 receptor (Homo sapiens, UniProt P11229); experiment: Alphascreen Surefire phospho-ERK1/2 functional assay, M1; conditions: for EC50: phospho-ERK1/2, read-out: pEC50 M1 (converted); for Emax: CHO
T4 sequence (P11229 1-460): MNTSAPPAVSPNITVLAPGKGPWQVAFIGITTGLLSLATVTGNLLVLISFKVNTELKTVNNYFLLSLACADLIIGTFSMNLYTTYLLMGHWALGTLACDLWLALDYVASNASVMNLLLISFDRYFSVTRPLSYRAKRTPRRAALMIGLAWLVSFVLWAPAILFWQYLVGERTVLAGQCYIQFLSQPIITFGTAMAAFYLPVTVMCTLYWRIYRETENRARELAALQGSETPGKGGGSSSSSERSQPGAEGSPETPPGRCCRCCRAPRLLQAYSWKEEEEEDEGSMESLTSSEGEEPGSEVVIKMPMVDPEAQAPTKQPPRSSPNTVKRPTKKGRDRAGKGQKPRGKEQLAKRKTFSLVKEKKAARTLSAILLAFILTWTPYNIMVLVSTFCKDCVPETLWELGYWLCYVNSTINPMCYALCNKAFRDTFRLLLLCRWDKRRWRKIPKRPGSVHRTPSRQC
In short: as §3

[5] = CHO cells stably expressing human M4
[6] = read-out: M4 % Emax cf. ACh, CHO cells stably expressing human M4, Emax relative to ACh
[7] = CHO cells stably expressing human M1
[8] = read-out: M1 % Emax cf. ACh, CHO cells stably expressing human M1, Emax relative to ACh

T2 sequence (P20309 whole entry): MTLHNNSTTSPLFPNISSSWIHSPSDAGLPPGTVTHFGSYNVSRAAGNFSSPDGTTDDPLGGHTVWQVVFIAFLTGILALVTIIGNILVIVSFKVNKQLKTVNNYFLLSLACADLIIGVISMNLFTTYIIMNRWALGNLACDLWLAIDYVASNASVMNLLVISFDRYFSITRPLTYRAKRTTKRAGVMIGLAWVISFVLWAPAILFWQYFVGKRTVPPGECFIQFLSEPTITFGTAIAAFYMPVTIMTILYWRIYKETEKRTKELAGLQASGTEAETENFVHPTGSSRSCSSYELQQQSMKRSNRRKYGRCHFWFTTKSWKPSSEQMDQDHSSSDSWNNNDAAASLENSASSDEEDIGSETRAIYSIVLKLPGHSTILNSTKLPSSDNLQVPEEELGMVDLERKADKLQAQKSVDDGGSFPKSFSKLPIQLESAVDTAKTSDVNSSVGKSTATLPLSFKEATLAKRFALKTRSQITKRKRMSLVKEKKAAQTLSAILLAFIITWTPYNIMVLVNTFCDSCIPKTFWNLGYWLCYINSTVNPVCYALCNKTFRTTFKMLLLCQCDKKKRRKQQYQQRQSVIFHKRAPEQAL

CCOC(=O)N[C@H]1CCN(C2CCC(C#N)(c3cccc(Cl)c3)CC2)C1 (single isomer, unassigned) [1-10 Isomer 2]
EC50 [1]: > 20 µM
Emax [1]: 6%
EC50 [2]: > 20 µM
Emax [2]: 9%
EC50 [3, 5]: > 20 µM
Emax [3, 6]: 24%
EC50 [4, 7]: 0.0282 µM
Emax [4, 8]: 106%

CCOC(=O)N[C@H]1CCN(C2CCC(C#N)(c3cccc(OC)c3)CC2)C1 (single isomer, unassigned) [1-11 Isomer 2]
EC50 [1]: > 20 µM
Emax [1]: 0%
EC50 [2]: > 20 µM
Emax [2]: 1%
EC50 [3, 5]: > 20 µM
Emax [3, 6]: 9%
EC50 [4, 7]: 0.148 µM
Emax [4, 8]: 99%

CCOC(=O)N[C@H]1CCN(C2CCC(C#N)(c3ccc(F)cn3)CC2)C1 (single isomer, unassigned) [1-14 Isomer 2]
EC50 [1]: > 20 µM
Emax [1]: 2%
EC50 [2]: > 20 µM
Emax [2]: 0%
EC50 [3, 5]: > 20 µM
Emax [3, 6]: 32%
EC50 [4, 7]: 0.123 µM
Emax [4, 8]: 89%

CCOC(=O)N(C)[C@H]1CCN(C2CCC(C#N)(c3ccccc3)CC2)C1 (single isomer, unassigned) [1-20 Isomer 2]
EC50 [1]: > 20 µM
Emax [1]: 0%
EC50 [2]: > 20 µM
Emax [2]: 0%
EC50 [3, 5]: > 20 µM
Emax ([3]; read-out: M4 % Emax cf. ACh): 19%
EC50 [4, 7]: 0.148 µM
Emax ([4]; read-out: M1 % Emax cf. ACh): 78%

CCOC(=O)N(C)[C@@H]1CCN(C2CCC(C#N)(c3ccccc3)CC2)C1 (single isomer, unassigned) [1-21 Isomer 2]
EC50 [1]: > 20 µM
Emax [1]: 1%
EC50 [2]: > 20 µM
Emax [2]: 5%
EC50 [3, 5]: > 20 µM
Emax ([3]; read-out: M4 % Emax cf. ACh): 15%
EC50 [4, 7]: 0.11 µM
Emax ([4]; read-out: M1 % Emax cf. ACh): 64%

CCOC(=O)N[C@H]1CCN(C2CCC3(CC2)C(=O)Nc2ccccc23)C1 (single isomer, unassigned) [2-1 isomer 1]
EC50 [1]: > 20 µM
Emax [1]: 2%
EC50 [2]: > 20 µM
Emax [2]: 4%
EC50 [3, 5]: > 20 µM
Emax [3, 6]: 10%
EC50 [4, 7]: 0.0741 µM
Emax [4, 8]: 74%

CCOC(=O)N[C@H]1CCN(C2CCC3(CC2)C(=O)Nc2cc(C)ccc23)C1 (single isomer, unassigned) [2-4 isomer 1]
EC50 [1]: > 15.8 µM
Emax [1]: 3%
EC50 [2]: > 15.8 µM
Emax [2]: 11%
EC50 [3, 5]: > 15.8 µM
Emax [3, 6]: 11%
EC50 [4, 7]: 0.0661 µM
Emax [4, 8]: 65%

CCOC(=O)N[C@H]1CCN(C2CCC3(CC2)C(=O)Nc2ccc(C)cc23)C1 (single isomer, unassigned) [2-5 isomer 1]
EC50 [1]: > 20 µM
Emax [1]: 13%
EC50 [2]: > 20 µM
Emax [2]: 15%
EC50 [3, 5]: > 15.8 µM
Emax [3, 6]: 5%
EC50 [4, 7]: 0.00776 µM
Emax [4, 8]: 49%

CCOC(=O)N[C@H]1CCN(C2CCC3(CC2)C(=O)Nc2cccc(C)c23)C1 (single isomer, unassigned) [2-6 isomer 1]
EC50 [1]: > 20 µM
Emax [1]: 11%
EC50 [2]: > 20 µM
Emax [2]: 16%
EC50 [3, 5]: 0.0603 µM
Emax [3, 6]: 54%
EC50 [4, 7]: 0.186 µM
Emax [4, 8]: 66%

CCOC(=O)N[C@H]1CCN(C2CCC3(CC2)C(=O)Nc2cc(F)ccc23)C1 (single isomer, unassigned) [2-7 isomer 2]
EC50 [1]: > 20 µM
Emax [1]: 5%
EC50 [2]: > 20 µM
Emax [2]: 2%
M4 % Emax cf. ACh ([3]; CHO cells stably expressing human M4, Emax relative to ACh): 16%
EC50 [3, 5]: > 20 µM
M1 % Emax cf. ACh ([4]; CHO cells stably expressing human M1, Emax relative to ACh): 89%
EC50 [4, 7]: 0.0525 µM

CCOC(=O)N[C@H]1CCN(C2CCC3(CC2)C(=O)Nc2ccc(OC)cc23)C1 (single isomer, unassigned) [2-10 isomer 1]
EC50 [1]: > 20 µM
Emax [1]: 27%
EC50 [2]: > 20 µM
Emax [2]: 4%
EC50 [3, 5]: > 20 µM
Emax [3, 6]: 39%
EC50 [4, 7]: 0.00794 µM
Emax [4, 8]: 64%

CCOC(=O)N[C@H]1CCN(C2CCC3(CC2)C(=O)Nc2ncc(Cl)cc23)C1 (single isomer, unassigned) [2-17 isomer 1]
EC50 [1]: > 20 µM
Emax [1]: 7%
EC50 [2]: > 20 µM
Emax [2]: 7%
EC50 [3, 5]: > 20 µM
Emax [3, 6]: 18%
EC50 [4, 7]: 0.0562 µM
Emax [4, 8]: 48%

CCOC(=O)N(C)[C@@H]1CCN(C2CCC3(CC2)C(=O)Nc2ncccc23)C1 (single isomer, unassigned) [2-18 isomer 1]
EC50 [1]: > 20 µM
Emax [1]: 21%
EC50 [2]: > 20 µM
Emax [2]: 11%
EC50 [3, 5]: 0.174 µM
Emax [3, 6]: 141%
EC50 [4, 7]: 0.148 µM
Emax [4, 8]: 122%

CCOC(=O)N1CCCN(C2CCC(C#N)(c3ccc(Br)cn3)CC2)CC1 (single isomer, unassigned) [3-17 Isomer 1]
EC50 [1]: > 20 µM
Emax [1]: 0%
EC50 [2]: > 20 µM
Emax [2]: 0%
EC50 [3, 5]: 0.0724 µM
Emax [3, 6]: 80%
EC50 [4, 7]: 0.00302 µM
Emax [4, 8]: 92%

CCOC(=O)N1CCCN(C2CCC(C#N)(c3ccc(OC)cn3)CC2)CC1 (single isomer, unassigned) [3-19 Isomer 2]
EC50 [1]: > 20 µM
Emax [1]: 5%
EC50 [2]: > 20 µM
Emax [2]: 6%
EC50 [3, 5]: 1.74 µM
Emax [3, 6]: 39%
EC50 [4, 7]: 0.0302 µM
Emax [4, 8]: 101%

CCOC(=O)N1CCCN(C2CCC(C#N)(c3ccc(OCC)cn3)CC2)CC1 (single isomer, unassigned) [3-20 Isomer 2]
EC50 [1]: > 20 µM
Emax [1]: 27%
EC50 [2]: > 20 µM
Emax [2]: 2%
EC50 [3, 5]: > 20 µM
Emax [3, 6]: 7%
EC50 [4, 7]: 0.0115 µM
Emax [4, 8]: 139%

CC#CCOC(=O)N1CCCN(C2CCC(C#N)(c3ccncc3)CC2)CC1 (single isomer, unassigned) [3-30 Isomer 1]
EC50 [1]: > 20 µM
Emax [1]: 6%
EC50 [2]: > 20 µM
Emax [2]: 0%
EC50 [3, 5]: 0.229 µM
Emax [3, 6]: 72%
EC50 [4, 7]: 0.295 µM
Emax [4, 8]: 104%

C#CCOC(=O)N1CCCN(C2CCC(C#N)(c3ccc(OC)cn3)CC2)CC1 (single isomer, unassigned) [3-31 Isomer 1]
EC50 [1]: > 20 µM
Emax [1]: 8%
EC50 [2]: > 20 µM
Emax [2]: 0%
EC50 [3, 5]: 2.57 µM
Emax [3, 6]: 52%
EC50 [4, 7]: 0.0195 µM
Emax [4, 8]: 91%

Reference: patent US10759751B2, “Substituted spirocyclohexanes as muscarinic M1 receptor and/or M4 receptor agonists” (Heptares Therapeutics Limited, priority 2016, dated 2020)
